pIC50: −log10 of the molar value.
The molecules below were run against P97 (Homo sapiens (Human), UniProt P55072) (assay: P97 Biomolgreen ATPase assay, 200 μM ATP). Settings: not given.
Format: biochemical

Chain of P97 (P55072 whole entry): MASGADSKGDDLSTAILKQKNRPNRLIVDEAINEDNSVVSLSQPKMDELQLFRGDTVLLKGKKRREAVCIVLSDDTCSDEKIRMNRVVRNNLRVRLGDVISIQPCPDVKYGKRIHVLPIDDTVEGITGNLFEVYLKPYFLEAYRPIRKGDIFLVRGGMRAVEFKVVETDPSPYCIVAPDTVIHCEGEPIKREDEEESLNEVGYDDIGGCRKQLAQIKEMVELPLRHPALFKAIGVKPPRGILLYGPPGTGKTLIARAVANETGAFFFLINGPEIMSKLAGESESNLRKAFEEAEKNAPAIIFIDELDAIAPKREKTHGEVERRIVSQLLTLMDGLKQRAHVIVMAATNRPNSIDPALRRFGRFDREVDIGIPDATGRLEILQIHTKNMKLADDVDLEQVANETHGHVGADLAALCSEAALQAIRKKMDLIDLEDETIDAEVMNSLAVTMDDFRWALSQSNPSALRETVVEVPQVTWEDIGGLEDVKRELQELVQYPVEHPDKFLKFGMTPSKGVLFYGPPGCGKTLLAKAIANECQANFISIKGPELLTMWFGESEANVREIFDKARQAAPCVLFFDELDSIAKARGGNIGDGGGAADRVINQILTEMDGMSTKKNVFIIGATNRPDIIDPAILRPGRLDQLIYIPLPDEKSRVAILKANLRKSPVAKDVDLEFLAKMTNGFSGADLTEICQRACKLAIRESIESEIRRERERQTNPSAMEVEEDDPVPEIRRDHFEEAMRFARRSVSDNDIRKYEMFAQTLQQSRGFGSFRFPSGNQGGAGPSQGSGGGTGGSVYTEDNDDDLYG

P97 Biomolgreen; 200 μM ATP; IC50 (μM)	SMILES
not active	CCC(=O)NCC#Cc1ccc(OCc2nnc(SCC3CO3)n2-c2cccnc2)cc1C (stereo not drawn) [Compound 129]
not active	CCC(=O)NCC#Cc1ccc(OCc2nnc(SC[C@@]3(C)CO3)n2-c2cccnc2)cc1C [Compound 130]

Same assay, conditions: P97 Biomolgreen, IC50 (μM)

IC50 [µM]	SMILES
0.016	[2H]C1([2H])C([2H])([2H])C([2H])([2H])C([2H])(Sc2nnc(COc3ccc(C#CCOC(=O)NC4CCN(C)CC4)c(F)c3)n2-c2cccnc2)C1([2H])[2H] [Compound 126]
0.91	[2H]C1([2H])C([2H])([2H])C([2H])([2H])C([2H])(Sc2nnc(COc3ccc(C#CCOC(=O)OCC#Cc4ccc(OCc5nnc(SC6([2H])C([2H])([2H])C([2H])([2H])C([2H])([2H])C6([2H])[2H])n5-c5cccnc5)cc4C)c(C)c3)n2-c2cccnc2)C1([2H])[2H] [Compound 133]

Same assay, conditions: read-out: P97 Biomolgreen, IC50

pIC50	SMILES
7.42	C#Cc1ccc(OCc2nnc(SC3C=CCCC3)n2-c2cccnc2)cc1C (stereo not drawn) [Compound 127]
6.89	Cc1cc(OCc2nnc(SCC3CC3)n2-c2cccnc2)ccc1C#CCO [Compound 128]
6.48	C=CCSc1nnc(COc2ccc(C#CCNC(=O)CC)c(C)c2)n1-c1cccnc1 [Compound 131]
5.56	CCC(=O)NCC#Cc1ccc(OCc2nnc(SCC(=O)CCl)n2-c2cccnc2)cc1C [Compound 132]
6.60	Cc1cc(OCc2nnc(SC3C=CCCC3)n2-c2cccnc2)ccc1C#CCNC(=O)NCC#Cc1ccc(OCc2nnc(SC3C=CCCC3)n2-c2cccnc2)cc1C (stereo not drawn) [Compound 134]
